# Measurements: patent EP0116944B1 (priority 1983, dated 1984)
# Read-outs that look alike come from different tables or passages of the source.
# Legend:
# [1] = test system: Vasopressin-induzierten Koronarspasmen; parameters: species or system Ratten; conditions: in vivo; for Dauer der antianginösen Wirkung gegenüber Vasopressin: po
# in vivo = conditions: dog, iv
# ST-Wellensenkung = conditions: cited from earlier work
# [2] = test system: Blutdruck anästhesierter Ratten; conditions: in vivo
# systolischen Blutdruck = test system: systolischen Blutdruck; parameters: species or system Hunde; conditions: in vivo
# hypotensive Wirkung = conditions: in vivo
# Hypotensivum = conditions: orale Verabreichung; cited from earlier work
# [3] = intraduodenal, Ratten; cited from earlier work
smiles,measurement,setting,value
"O=[N+]([O-])OC(CO)CO [2-GN, Glycerin-2-nitrat]",Dauer der antianginösen Wirkung gegenüber Vasopressin,[1],2 to 3 h
same,half-life,in vivo,2.1 h
OCCN(CCO)c1nc(N2CCCCC2)c2nc(N(CCO)CCO)nc(N3CCCCC3)c2n1 [Dipyridamol],Hemmung der ST-Wellensenkung,ST-Wellensenkung; in vivo,unwirksam
"O=[N+]([O-])OCC(CO[N+](=O)[O-])O[N+](=O)[O-] [GTN, Glycerintrinitrat]",Dauer der hypotensiven Wirkung,[2],14 min
same,Beginn der Wirkung,systolischen Blutdruck,"0,4 min"
same,Einfluß auf den systolischen Blutdruck,systolischen Blutdruck,senkten
same,Hemmung der T-Wellenerhöhung / Vasopressin-induzierten Koronarspasmen,[1],entschieden den stärksten Einfluß
same,Dauer der antianginösen Wirkung gegenüber Vasopressin,[1],2 to 3 h
same,hypotensive Wirkung nach Vorbehandlung mit DHE,hypotensive Wirkung,herabgesetzt
same,Hemmung der ST-Wellensenkung,ST-Wellensenkung; in vivo,hemmte
same,Wirksamkeit als Hypotensivum,Hypotensivum,inaktiv
same,"Zeit, nach der kein weiterer Plasmawert der Ausgangssubstanz gemessen werden konnte",[3],≤ 5 min
"O=[N+]([O-])O[C@H]1CO[C@H]2[C@@H]1OC[C@H]2O[N+](=O)[O-] [ISDN, Isosorbid-dinitrat]",Hemmung der ST-Wellensenkung,"ST-Wellensenkung; oral, Ratten",hemmten
